Experimental data reported in ChEMBL document CHEMBL1141708, “Structure-activity relationship of ortho- and meta-phenol based LFA-1 ICAM inhibitors” (Bioorg Med Chem Lett, 2008).

Key:
[1] = in vivo; conditions: rat, po
[2] = in vivo; conditions: rat

bioavailability [1] | half-life [2] | SMILES
9% | 3.6 h | O=C(/C=C/c1ccc(Sc2ccccc2OC[C@H]2CC[C@@H](C(=O)O)CC2)c(C(F)(F)F)c1C(F)(F)F)N1CCOCC1
31% | 2.6 h | O=C(/C=C/c1ccc(Sc2cccc(O[C@H]3CC[C@@H](C(=O)O)CC3)c2)c(C(F)(F)F)c1C(F)(F)F)N1CCOCC1
